# Data as given in patent US20020143018A1 (priority 2000, published 2002).
# System: Sarcocystis neurona strain SN3
# Test: Microtiter Monolayer Disruption Assay (MMDA), inhibition of merozoite-induced cell destruction (CPE)
# Type: cell-based
# Conditions: S. neurona merozoites 50,000/well on BT cell monolayers, compound added 2 hours after infection, crystal violet readout, read-out: Percent Inhibition of Cell Destruction
# Procedure: In order to determine the scope of protection provided by praziquantel, in vitro testing was conducted. Sarcocystis neurona was evaluated for its sensitivity to this compound. Strain SN3 of Sarcocystis neurona was used.
# Bovine turbinate (BT) cells were used for all in vitro tests. Cells were grown to confluency in 25 cm^2 flasks in RMPI 1640 media supplemented with 10% v/v fetal bovine serum (FBS), 100 Units of penicillin (g/mL), […] and 5×10^−2 mM of 2-mercaptoethanol. After cell confluence was obtained, cells were maintained in the same media with reduced FBS (2% v/v). Cell cultures were incubated at 37 C. in a humidified atmosphere containing 5% carbon dioxide and 95% air.
# For growth of the parasite, BT cell monolayers were infected with parasites and examined with an inverted microscope for the development of lesions (cytopathic effect, “CPE”) or the presence of many extracellular merozoites. Once lesions were observed, or many extracellular parasites were present, the monolayer was scraped with the tip of a 5 mL pipette and 1 to 3 drops of the merozoite-containing fluid was transferred to two flasks of fresh BT cells. […]
# This assay was used to determine if the parasites or compound were toxic for BT cells. […] Each well was visually monitored daily and the assay was stopped when 90-100% of the untreated merozoite infected cells had lysed (90-100% CPE). […]
smiles,measurement,setting,value
"O=C(C1CCCCC1)N1CC(=O)N2CCc3ccccc3C2C1 (centres unmarked) [Praziquantel, praziquantel]",inhibition at 10 µg/mL,10 μg/mL,51%
same,inhibition at 20 µg/mL,20 μg/mL,69%
